In patent US12594276B2, “Inhibitors of human immunodeficiency virus replication” (ViiV Healthcare UK (No.5) Limited, priority 2024, dated 2026):

Columns and labels:
[1] = test system: recombinant NL4-3 virus (nef section replaced with Renilla luciferase gene) in MT-2 cells; test: HIV cell culture assay (antiviral activity, luciferase readout); format: cell-based; settings: Renilla, NL43, MT-2 cells infected for 4-5 days with recombinant NL4-3 Renilla luciferase virus
How it was run: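 MT-2 cells were infected for 4-5 days with reporter virus made by transfecting the recombinant NL4-3 proviral clone into 293T cells, in the presence of serial compound dilutions. Luciferase activity was read with a live-cell substrate. EC50 came from the exponential median effect equation, (Fa)=1/[1+(ED50/drug conc.)m].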

[2] = Compound cytotoxicity, XTT-based colorimetric assay; format: cell-based; settings: human; uninfected MT2 cells, day 4, XTT; read-out: CC50
How it was run: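 Follows the antiviral assay procedure, but with uninfected MT2 cells. On day 4, cell viability is measured by XTT-based colorimetry, giving CC50 values.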

Row | Structure (SMILES) | EC50 [1] [nM] | CC50 at 4 days [2] [nM]
1 | Cc1cc(C2(C)CCC(F)(F)CC2)nc2nc([C@H](Cc3cc(F)cc(F)c3)NC(=O)Cn3nc(C(F)F)c4c3C(F)(F)[C@@H]3C[C@H]43)n(-c3ccc(Cl)c4c(NS(C)(=O)=O)nn(CCN5CC(C)(C)OC(C)(C)C5)c34)c(=O)c12 (atropisomer, axis not shown; (P)) [Example 507, N-[(1S)-1-[(3P)-3-{4-chloro-3-methanesulfonamido-1-[2-(2,2,6,6-tetramethylmorpholin-4-yl)ethyl]-1H-indazol-7-yl}-7-(4,4-difluoro-1-methylcyclohexyl)-5-methyl-4-oxo-3H,4H-pyrido[2,3-d]pyrimidin-2-yl]-2-(3,5-difluorophenyl)ethyl]-2-[(2S,4R)-9-(difluoromethyl)-5,5-difluoro-7,8-diazatricyclo[4.3.0.0^2,^4]nona-1(6),8-dien-7-yl]acetamide] | 0.021 | > 20
2 | Cc1cc(C2(C)CCC(F)(F)CC2)nc2nc([C@H](Cc3cc(F)cc(F)c3)NC(=O)Cn3nc(C4CC4)c4c3C[C@@H]3C[C@H]43)n(-c3ccc(Cl)c4c(NS(C)(=O)=O)nn(CCN5C[C@@H](C)O[C@@H](C)C5)c34)c(=O)c12 (atropisomer, axis not shown; (P)) [Example 508, N-[(1S)-1-[(3P)-3-(4-chloro-1-{2-[(2R,6S)-2,6-dimethylmorpholin-4-yl]ethyl}-3-methanesulfonamido-1H-indazol-7-yl)-7-(4,4-difluoro-1-methylcyclohexyl)-5-methyl-4-oxo-3H,4H-pyrido[2,3-d]pyrimidin-2-yl]-2-(3,5-difluorophenyl)ethyl]-2-[(2S,4S)-9-cyclopropyl-7,8-diazatricyclo[4.3.0.0^2,^4]nona-1(6),8-dien-7-yl]acetamide] | 0.012 | > 20
3 | COCCCn1nc(NS(C)(=O)=O)c2c(Cl)ccc(-n3c([C@H](Cc4cc(F)cc(F)c4)NC(=O)Cn4nc(C(F)F)c5c4C(F)(F)[C@@H]4C[C@H]54)nc4nc(C5CCC(F)(F)CC5)cc(NCCN5C[C@H](F)C[C@H](F)C5)c4c3=O)c21 (atropisomer, axis not shown; (P)) [Example 509, N-[(1S)-1-[(3P)-3-[4-chloro-3-methanesulfonamido-1-(3-methoxypropyl)-1H-indazol-7-yl]-7-(4,4-difluorocyclohexyl)-5-({2-[(3R,5S)-3,5-difluoropiperidin-1-yl]ethyl}amino)-4-oxo-3H,4H-pyrido[2,3-d]pyrimidin-2-yl]-2-(3,5-difluorophenyl)ethyl]-2-[(2S,4R)-9-(difluoromethyl)-5,5-difluoro-7,8-diazatricyclo[4.3.0.0^2,^4]nona-1(6),8-dien-7-yl]acetamide] | 0.006 | > 20
4 | CS(=O)(=O)Nc1nn(CCN2C[C@H](F)C[C@H](F)C2)c2c(-n3c([C@H](Cc4cc(F)cc(F)c4)NC(=O)Cn4nc(C(F)F)c5c4C(F)(F)[C@@H]4C[C@H]54)nc4nc(C5CCC(F)(F)CC5)cc(CF)c4c3=O)ccc(Cl)c12 (atropisomer, axis not shown; (P)) [Example 512, N-[(1S)-1-[(3P)-3-(4-chloro-1-{2-[(3R,5S)-3,5-difluoropiperidin-1-yl]ethyl}-3-methanesulfonamido-1H-indazol-7-yl)-7-(4,4-difluorocyclohexyl)-5-(fluoromethyl)-4-oxo-3H,4H-pyrido[2,3-d]pyrimidin-2-yl]-2-(3,5-difluorophenyl)ethyl]-2-[(2S,4R)-9-(difluoromethyl)-5,5-difluoro-7,8-diazatricyclo[4.3.0.0^2,^4]nona-1(6),8-dien-7-yl]acetamide] | 0.006 | > 20
5 | CC1(C)CN(CCn2nc(NS(C)(=O)=O)c3c(Cl)ccc(-n4c([C@H](Cc5cc(F)cc(F)c5)NC(=O)Cn5nc(C(F)F)c6c5C(F)(F)[C@@H]5C[C@H]65)nc5nc(C6CCC(F)(F)CC6)cc(CF)c5c4=O)c32)CC(C)(C)O1 (atropisomer, axis not shown; (P)) [Example 513, N-[(1S)-1-[(3P)-3-{4-chloro-3-methanesulfonamido-1-[2-(2,2,6,6-tetramethylmorpholin-4-yl)ethyl]-1H-indazol-7-yl}-7-(4,4-difluorocyclohexyl)-5-(fluoromethyl)-4-oxo-3H,4H-pyrido[2,3-d]pyrimidin-2-yl]-2-(3,5-difluorophenyl)ethyl]-2-[(2S,4R)-9-(difluoromethyl)-5,5-difluoro-7,8-diazatricyclo[4.3.0.0^2,^4]nona-1(6),8-dien-7-yl]acetamide] | 0.017 | > 20
6 | CS(=O)(=O)Nc1nn(CCN2CCC(F)(F)CC2)c2c(-n3c([C@H](Cc4cc(F)cc(F)c4)NC(=O)Cn4nc(C(F)F)c5c4C(F)(F)[C@@H]4C[C@H]54)nc4nc(C5CCC(F)(F)CC5)cc(CF)c4c3=O)ccc(Cl)c12 (atropisomer, axis not shown; (P)) [Example 514, N-[(1S)-1-[(3P)-3-{4-chloro-1-[2-(4,4-difluoropiperidin-1-yl)ethyl]-3-methanesulfonamido-1H-indazol-7-yl}-7-(4,4-difluorocyclohexyl)-5-(fluoromethyl)-4-oxo-3H,4H-pyrido[2,3-d]pyrimidin-2-yl]-2-(3,5-difluorophenyl)ethyl]-2-[(2S,4R)-9-(difluoromethyl)-5,5-difluoro-7,8-diazatricyclo[4.3.0.0^2,^4]nona-1(6),8-dien-7-yl]acetamide] | 0.014 | > 20
7 | COCCCn1nc(NS(C)(=O)=O)c2c(Cl)ccc(-n3c([C@H](Cc4cc(F)cc(F)c4)NC(=O)Cn4nc(C(F)F)c5c4C(F)(F)[C@@H]4C[C@H]54)nc4nc(C5CCC(F)(F)CC5)cc(NCCN5CCC6(CC5)CC6)c4c3=O)c21 (atropisomer, axis not shown; (P)) [Example 515, N-[(1S)-1-[(3P)-5-[(2-{6-azaspiro[2.5]octan-6-yl}ethyl)amino]-3-[4-chloro-3-methanesulfonamido-1-(3-methoxypropyl)-1H-indazol-7-yl]-7-(4,4-difluorocyclohexyl)-4-oxo-3H,4H-pyrido[2,3-d]pyrimidin-2-yl]-2-(3,5-difluorophenyl)ethyl]-2-[(2S,4R)-9-(difluoromethyl)-5,5-difluoro-7,8-diazatricyclo[4.3.0.0^2,^4]nona-1(6),8-dien-7-yl]acetamide] | 0.016 | > 20
8 | COCCCn1nc(NS(C)(=O)=O)c2c(Cl)ccc(-n3c([C@H](Cc4cc(F)cc(F)c4)NC(=O)Cn4nc(C(F)F)c5c4C(F)(F)[C@@H]4C[C@H]54)nc4nc(C5CCC(F)(F)CC5)cc(NCCN5CC(F)(F)C5)c4c3=O)c21 (atropisomer, axis not shown; (P)) [Example 517, N-[(1S)-1-[(3P)-3-[4-chloro-3-methanesulfonamido-1-(3-methoxypropyl)-1H-indazol-7-yl]-5-{[2-(3,3-difluoroazetidin-1-yl)ethyl]amino}-7-(4,4-difluorocyclohexyl)-4-oxo-3H,4H-pyrido[2,3-d]pyrimidin-2-yl]-2-(3,5-difluorophenyl)ethyl]-2-[(2S,4R)-9-(difluoromethyl)-5,5-difluoro-7,8-diazatricyclo[4.3.0.0^2,^4]nona-1(6),8-dien-7-yl]acetamide] | 0.009 | > 20
9 | COCCCn1nc(NS(C)(=O)=O)c2c(Cl)ccc(-n3c([C@H](Cc4cc(F)cc(F)c4)NC(=O)Cn4nc(C(F)F)c5c4C(F)(F)[C@@H]4C[C@H]54)nc4nc(C5CCC(F)(F)CC5)cc(NCCCN5CCCCC5)c4c3=O)c21 (atropisomer, axis not shown; (P)) [Example 519, N-[(1S)-1-[(3P)-3-[4-chloro-3-methanesulfonamido-1-(3-methoxypropyl)-1H-indazol-7-yl]-7-(4,4-difluorocyclohexyl)-4-oxo-5-{[3-(piperidin-1-yl)propyl]amino}-3H,4H-pyrido[2,3-d]pyrimidin-2-yl]-2-(3,5-difluorophenyl)ethyl]-2-[(2S,4R)-9-(difluoromethyl)-5,5-difluoro-7,8-diazatricyclo[4.3.0.0^2,^4]nona-1(6),8-dien-7-yl]acetamide] | 0.024 | > 20
10 | COCCCn1nc(NS(C)(=O)=O)c2c(Cl)ccc(-n3c([C@H](Cc4cc(F)cc(F)c4)NC(=O)Cn4nc(C(F)F)c5c4C(F)(F)[C@@H]4C[C@H]54)nc4nc(C5CCC(F)(F)CC5)cc(NCCc5ccccc5)c4c3=O)c21 (atropisomer, axis not shown; (P)) [Example 521, N-[(1S)-1-[(3P)-3-[4-chloro-3-methanesulfonamido-1-(3-methoxypropyl)-1H-indazol-7-yl]-7-(4,4-difluorocyclohexyl)-4-oxo-5-[(2-phenylethyl)amino]-3H,4H-pyrido[2,3-d]pyrimidin-2-yl]-2-(3,5-difluorophenyl)ethyl]-2-[(2S,4R)-9-(difluoromethyl)-5,5-difluoro-7,8-diazatricyclo[4.3.0.0^2,^4]nona-1(6),8-dien-7-yl]acetamide] | 0.079 | > 20
11 | COCCCn1nc(NS(C)(=O)=O)c2c(Cl)ccc(-n3c([C@H](Cc4cc(F)cc(F)c4)NC(=O)Cn4nc(C(F)F)c5c4C(F)(F)[C@@H]4C[C@H]54)nc4nc(C5CCC(F)(F)CC5)cc(NCCN(C)C)c4c3=O)c21 (atropisomer, axis not shown; (P)) [Example 522, N-[(1S)-1-[(3P)-3-[4-chloro-3-methanesulfonamido-1-(3-methoxypropyl)-1H-indazol-7-yl]-7-(4,4-difluorocyclohexyl)-5-{[2-(dimethylamino)ethyl]amino}-4-oxo-3H,4H-pyrido[2,3-d]pyrimidin-2-yl]-2-(3,5-difluorophenyl)ethyl]-2-[(2S,4R)-9-(difluoromethyl)-5,5-difluoro-7,8-diazatricyclo[4.3.0.0^2,^4]nona-1(6),8-dien-7-yl]acetamide] | 0.014 | > 20
